Test results published in ChEMBL document CHEMBL1201862, “PubChem BioAssay data set” (2004).
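48-hour exposure; five concentrations; linearly interpolated endpoints. GI50 = concentration required for 50% inhibition of growth.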 Active and inactive are the calls of the source. Cut-off read from the data, not from the text of the source: active = GI50 up to about 1.1 µM and inactive = higher.

Experiments:
Test in all cases: NCI tumour cell line growth inhibition, 48 h
ACHN = tested on: ACHN
MOLT-4 = tested on: MOLT-4
SN12C = tested on: SN12C
SK-MEL-2 = tested on: SK-MEL-2
HT-29 = tested on: HT-29
A498 = tested on: A498
K562 = tested on: K562
NCI/ADR-RES = tested on: NCI/ADR-RES
IGROV-1 = tested on: IGROV-1
SF-295 = tested on: SF-295
UACC-62 = tested on: UACC-62
HCT-116 = tested on: HCT-116
T47D = tested on: T47D
SW-620 = tested on: SW-620
MDA-MB-435 = tested on: MDA-MB-435
M14 = tested on: M14
MDA-N = tested on: MDA-N
HOP-62 = tested on: HOP-62
SF-539 = tested on: SF-539
OVCAR-3 = tested on: OVCAR-3

Measured: GI50

CCO/C=N/C1=C(C#N)C(c2ccc(Cl)cc2)c2c(-c3ccccc3)nn(-c3ccccc3)c2O1 (centres undefined)
inactive: ACHN 8.51 µM | MOLT-4 6.93 µM | SN12C 12.2 µM | SK-MEL-2 11.7 µM | HT-29 7.53 µM | A498 13.4 µM | K562 7.78 µM | NCI/ADR-RES 9.86 µM | IGROV-1 8.93 µM | SF-295 7.43 µM | UACC-62 12.2 µM | HCT-116 7.5 µM | T47D > 61.9 µM | SW-620 12.9 µM | MDA-MB-435 12.4 µM | M14 4.58 µM | MDA-N 14.7 µM | HOP-62 19.1 µM | SF-539 6.14 µM | OVCAR-3 3.72 µM

COc1cc(-c2c[nH]c3ccccc23)nc(-c2c[nH]c3ccccc23)n1
inactive: ACHN 2.61 µM | MOLT-4 2.9 µM | SK-MEL-2 4.94 µM | HT-29 3.63 µM | A498 2.3 µM | K562 3.96 µM | NCI/ADR-RES 8.87 µM | IGROV-1 1.85 µM | SF-295 3.13 µM | UACC-62 6.18 µM | HCT-116 3.43 µM | T47D 5.19 µM | SW-620 7.62 µM | MDA-MB-435 5.77 µM | M14 4.07 µM | MDA-N 4.05 µM | HOP-62 8.89 µM | SF-539 7.14 µM | OVCAR-3 6.71 µM

O=C1N(CN2CCOCC2)CN(CN2CCOCC2)C(=O)N1Cc1ccc(CN2C(=O)N(CN3CCOCC3)CN(CN3CCOCC3)C2=O)cc1
inactive: ACHN 41.8 µM | MOLT-4 35.2 µM | SN12C 59.8 µM | SK-MEL-2 20.6 µM | HT-29 42 µM | A498 > 100 µM | NCI/ADR-RES 49.9 µM | IGROV-1 > 100 µM | SF-295 > 100 µM | UACC-62 31.2 µM | HCT-116 33.6 µM | T47D 53 µM | SW-620 43 µM | MDA-MB-435 26.4 µM | M14 28.2 µM | MDA-N 31.7 µM | HOP-62 > 100 µM | SF-539 44.8 µM | OVCAR-3 31.6 µM

CCCCCC(=O)OC[n+]1ccc(-c2c(COC(=O)NC(C)C)c(COC(=O)NC(C)C)c3n2CCC3)cc1
inactive: ACHN 50.9 µM | MOLT-4 35.9 µM | SN12C > 100 µM | SK-MEL-2 > 100 µM | HT-29 > 100 µM | A498 > 100 µM | K562 > 100 µM | NCI/ADR-RES > 100 µM | IGROV-1 > 100 µM | SF-295 > 100 µM | UACC-62 26.5 µM | HCT-116 > 100 µM | T47D > 100 µM | SW-620 > 100 µM | MDA-MB-435 > 100 µM | M14 > 100 µM | MDA-N > 100 µM | HOP-62 > 100 µM | SF-539 > 100 µM | OVCAR-3 > 100 µM

CSC(=S)N/N=C/c1ccccc1
inactive: ACHN 43.4 µM | SN12C 50.2 µM | SK-MEL-2 > 100 µM | HT-29 33 µM | A498 > 100 µM | K562 42.5 µM | NCI/ADR-RES 25.4 µM | IGROV-1 22.3 µM | SF-295 39.2 µM | UACC-62 37.4 µM | HCT-116 29.6 µM | T47D 16.3 µM | SW-620 54.8 µM | MDA-MB-435 47.4 µM | M14 29.4 µM | MDA-N 41.9 µM | HOP-62 40.7 µM | SF-539 56.6 µM | OVCAR-3 42 µM

O=C(CCN1CCCCC1)N1CCc2c([nH]c3ccccc23)C1c1cccnc1 (centres undefined)
inactive: ACHN > 85.5 µM | MOLT-4 47.1 µM | SN12C > 81.5 µM | SK-MEL-2 18.3 µM | HT-29 32.4 µM | A498 30.5 µM | K562 30.8 µM | NCI/ADR-RES > 100 µM | IGROV-1 > 92 µM | SF-295 37.5 µM | UACC-62 20.7 µM | HCT-116 61.8 µM | T47D 64.1 µM | SW-620 > 94 µM | MDA-MB-435 35.5 µM | M14 22.9 µM | MDA-N 28.1 µM | HOP-62 > 82.2 µM | SF-539 61.4 µM | OVCAR-3 > 100 µM

COc1ccc2nc3c([N+](=O)[O-])ccc4c3c(c2c1)N(CCCN(C)C)C(=S)N4CCCN(C)C
inactive: ACHN 4.1 µM | MOLT-4 3.5 µM | SN12C 5.11 µM | SK-MEL-2 16.1 µM | HT-29 2.22 µM | A498 17.7 µM | K562 1.77 µM | NCI/ADR-RES 6.62 µM | IGROV-1 2.97 µM | SF-295 4.6 µM | UACC-62 16 µM | HCT-116 2.1 µM | T47D 20.5 µM | SW-620 2.62 µM | MDA-MB-435 5.74 µM | M14 4 µM | MDA-N 8.13 µM | HOP-62 5.19 µM | SF-539 4 µM | OVCAR-3 6.04 µM

CCOC(=O)/C=C/[C@H](O[Si](CC)(CC)CC)C(C)(C)C
inactive: ACHN 28.7 µM | MOLT-4 77.1 µM | SN12C 39 µM | SK-MEL-2 23.2 µM | HT-29 34.1 µM | A498 > 100 µM | K562 65.8 µM | NCI/ADR-RES > 100 µM | IGROV-1 > 100 µM | SF-295 42.4 µM | UACC-62 90.2 µM | HCT-116 51.2 µM | T47D 67.1 µM | SW-620 40.7 µM | MDA-MB-435 59 µM | MDA-N 78.2 µM | HOP-62 83.6 µM | SF-539 > 100 µM | OVCAR-3 52.7 µM

CN(C)c1nncc2[nH]nnc12
inactive: ACHN > 100 µM | MOLT-4 > 100 µM | SN12C > 100 µM | SK-MEL-2 > 100 µM | HT-29 > 100 µM | A498 > 100 µM | K562 > 100 µM | NCI/ADR-RES > 100 µM | IGROV-1 > 100 µM | SF-295 > 100 µM | UACC-62 > 100 µM | HCT-116 > 100 µM | T47D > 100 µM | SW-620 > 100 µM | MDA-MB-435 > 100 µM | M14 > 100 µM | MDA-N > 100 µM | HOP-62 > 100 µM | SF-539 > 100 µM | OVCAR-3 > 100 µM

NC1C/C(=N\O)c2c(Cl)sc(Cl)c21 (centres undefined)
inactive: ACHN 21.8 µM | MOLT-4 9.73 µM | SN12C 19.1 µM | SK-MEL-2 19.7 µM | HT-29 23.1 µM | A498 20.2 µM | K562 43.2 µM | NCI/ADR-RES 25.6 µM | IGROV-1 17 µM | SF-295 28.1 µM | HCT-116 3.96 µM | T47D 18.7 µM | SW-620 17.9 µM | MDA-MB-435 15.6 µM | M14 16.8 µM | MDA-N 18 µM | HOP-62 21.5 µM | SF-539 8.95 µM | OVCAR-3 17.3 µM

COc1ccc(OC)c2c1C(=O)C(Cl)=C(Cl)C2=O
inactive: ACHN 2.99 µM | MOLT-4 2.51 µM | SN12C 10.7 µM | SK-MEL-2 3.06 µM | HT-29 4.18 µM | A498 20.3 µM | K562 > 22.2 µM | NCI/ADR-RES 2.58 µM | IGROV-1 15.5 µM | SF-295 20.1 µM | UACC-62 2.58 µM | HCT-116 1.72 µM | T47D 3.17 µM | SW-620 1.81 µM | MDA-MB-435 2.31 µM | M14 2.47 µM | MDA-N 2.08 µM | SF-539 4.72 µM | OVCAR-3 2.39 µM

CCNc1nc2c(ncn2C2CC(O)C(COP(=O)(O)O)O2)c(=O)[nH]1 (centres undefined)
inactive: ACHN > 100 µM | SN12C > 100 µM | SK-MEL-2 > 100 µM | HT-29 > 100 µM | A498 > 100 µM | NCI/ADR-RES > 100 µM | IGROV-1 > 100 µM | SF-295 > 100 µM | UACC-62 > 100 µM | HCT-116 > 100 µM | T47D > 100 µM | SW-620 > 100 µM | MDA-MB-435 > 100 µM | M14 > 100 µM | MDA-N > 100 µM | HOP-62 > 100 µM | SF-539 > 100 µM | OVCAR-3 > 100 µM

CC(C)(C)OC(=O)NCC(c1c[nH]c2ccccc12)c1c[nH]c2ccccc12
inactive: ACHN > 100 µM | MOLT-4 11.7 µM | SN12C 16.7 µM | SK-MEL-2 18.4 µM | HT-29 15.1 µM | A498 > 100 µM | NCI/ADR-RES 19.4 µM | IGROV-1 12.3 µM | SF-295 15.6 µM | UACC-62 > 100 µM | HCT-116 16 µM | T47D 17 µM | SW-620 17 µM | MDA-MB-435 15.7 µM | M14 14.9 µM | MDA-N 17.5 µM | HOP-62 16.9 µM | SF-539 17.7 µM | OVCAR-3 15.3 µM

O=C(c1ccccc1)c1ccc2c(c1)nc1n2C(c2c(F)cccc2F)SC1 (centres undefined)
inactive: ACHN 28.8 µM | SN12C 18.7 µM | SK-MEL-2 18.5 µM | HT-29 13 µM | A498 19.5 µM | NCI/ADR-RES 29.9 µM | IGROV-1 52.4 µM | SF-295 17.9 µM | UACC-62 15.5 µM | HCT-116 15 µM | T47D 4.71 µM | SW-620 37.2 µM | MDA-MB-435 27.3 µM | M14 20.8 µM | MDA-N 19.7 µM | HOP-62 34 µM | SF-539 28.6 µM | OVCAR-3 19.9 µM
